Experimental data from patent US20230181536A1, “ANTICANCER COMBINATION THERAPY WITH N-(1-ACRYLOYL-AZETIDIN-3-YL)-2-((1H-INDAZOL-3-YL)AMINO)METHYL)-1H-IMIDAZOLE-5-CARBOXAMIDE INHIBITOR OF KRAS-G12C” (TAIHO PHARMACEUTICAL CO., LTD., priority 2020, published 2023).
pIC50: −log10 of the molar value.

Target: T1, KRAS G12C (Homo sapiens, UniProt P01116, G12C)
T1 construct: KRAS G12C (amino acid region: 1-169)
Assay: Inhibitory activity on the KRAS G12C nucleotide (GDP-GTP) exchange reaction
Format: biochemical
Details: Bodipy FL GDP-bound KRAS G12C 25 nM; preincubation at 25° C. for 4 hours; SOS1 100 nM, GppNHp 1 μM, reaction for 30 minutes
Method: Test Example 2: Evaluation of Inhibitory Activity of Compounds on the KRAS G12C Nucleotide (GDP-GTP) Exchange Reaction
The inhibitory activity of compounds on the exchange reaction of GDP into GppNHp in Bodipy (trademark) FL-bound KRAS G12C was examined by fluorescence measurement using human recombinant KRAS G12C and SOS1 proteins.
For the preparation of KRAS G12C to which Bodipy FL GDP was bound, first, 50 µM KRAS G12C (amino acid region: 1-169) and 1 mM Bodipy FL GDP (Invitrogen, G22360) were incubated for 1 hour in a buffer (20 mM Tris-HCl (pH 7.5), 50 mM NaCl, 1 mM DTT) in ice in the presence of 2.5 mM EDTA. Thereafter, MgCl2 with a final concentration of 10 mM was added, and the mixture was incubated at room temperature for 30 minutes. The protein was allowed to pass through a NAP-5 column to remove free nucleotides and was used for compound evaluation.
For the measurement of the inhibitory activity of compounds on nucleotide exchange reaction, first, the compound of the disclosure was diluted stepwise with dimethyl sulfoxide (DMSO). Subsequently, a solution of the gradually diluted compound of the disclosure in DMSO (the final concentration of DMSO: 5%) and KRAS G12C (25 nM) bound to Bodipy FL GDP were added to a reaction buffer (20 mM Tris-HCl (pH 7.5), 100 mM NaCl, 1 mM MgCl2, 2 mM DTT, 0.1% Tween20), followed by preincubation at 25° C. for 4 hours. Thereafter, Son of Sevenless Homolog 1 (SOS1, amino acid region: 564-1049) and GppNHp (GMPPNP, Jena Bioscience GmbH, NU-401-50) were added such that their final concentration was 100 nM and 1 μM respectively, followed by reaction for 30 minutes. The change in fluorescence intensity of Bodipy FL (excitation wavelength: 485 nm, fluorescence wavelength: 520 nm) immediately after the start of reaction and after 30 minutes from the start of reaction was standardized. The signal value for only DMSO was determined to be 0% inhibition, and the signal value for no addition of GppNHp was determined to be 100% inhibition. The compound concentration at which 50% inhibition is achieved was determined to be the IC50 (nM) and was calculated.

T1 sequence (P01116 1-169 isoform P01116-2 G12C): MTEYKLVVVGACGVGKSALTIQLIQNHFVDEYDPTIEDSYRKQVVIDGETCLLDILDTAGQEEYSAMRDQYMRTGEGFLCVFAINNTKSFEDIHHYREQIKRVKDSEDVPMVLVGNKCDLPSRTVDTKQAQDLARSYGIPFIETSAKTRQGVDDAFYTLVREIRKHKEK

| Compound | pIC50 |
| --- | --- |
| C=CC(=O)N1CC(NC(=O)c2c(C)nc(CNc3n[nH]c4cc(Cl)c(C(C)(C)C)cc34)n2C(C)(C)C)C1 [Example 24, N-(1-acryloylazetidin-3-yl)-1-(tert-butyl)-2-(((5-(tert-butyl)-6-chloro-1H-indazol-3-yl)amino)methyl)-4-methyl-1H-imidazole-5-carboxamide] | 7.46 |
| C=CC(=O)N1CC(NC(=O)c2cnc(CNc3n[nH]c4cc(Cl)c(C(C)(C)C)cc34)n2Cc2cc(OC)cc(OC)c2)C1 [Example 88, N-(1-acryloylazetidin-3-yl)-2-(((5-(tert-butyl)-6-chloro-1H-indazol-3-yl)amino)methyl)-1-(3,5-dimethoxybenzyl)-1H-imidazole-5-carboxamide] | 6.80 |
| C=CC(=O)N1C[C@@H](F)[C@@H](NC(=O)c2c(C)nc(CNc3n[nH]c4cc(Cl)c(C(C)(C)C)cc34)n2C)C1 [Example 57, N-((3S,4R)-1-acryloyl-4-fluoropyrrolidin-3-yl)-2-(((5-(tert-butyl)-6-chloro-1H-indazol-3-yl)amino)methyl)-1,4-dimethyl-1H-imidazole-5-carboxamide] | 6.49 |
| C=CC(=O)N1CC(NC(=O)c2c(Cl)nc(CNc3n[nH]c4cc(Cl)c(C(C)(C)C)cc34)n2C2CCCCC2)C1 [Example 109, N-(1-acryloylazetidin-3-yl)-2-(((5-(tert-butyl)-6-chloro-1H-indazol-3-yl)amino)methyl)-4-chloro-1-cyclohexyl-1H-imidazole-5-carboxamide] | 7.64 |
| C=CC(=O)N1CC(NC(=O)c2c(Cl)nc(CNc3n[nH]c4cc(Cl)c(C(C)(C)C)cc34)n2[C@@H]2CCN(Cc3ccccc3)C2)C1 [Example 122, (R)-N-(1-acryloylazetidin-3-yl)-1-(1-benzylpyrrolidin-3-yl)-2-(((5-(tert-butyl)-6-chloro-1H-indazol-3-yl)amino)methyl)-4-chloro-1H-imidazole-5-carboxamide] | 8.22 |
| C=CC(=O)N1C[C@@H](CF)[C@@H](NC(=O)c2c(C)nc(CNc3n[nH]c4cc(Cl)c(C(C)(C)C)cc34)n2C)C1 [Example 66, N-((3R,4R)-1-acryloyl-4-(fluoromethyl)pyrrolidin-3-yl)-2-(((5-(tert-butyl)-6-chloro-1H-indazol-3-yl)amino)methyl)-1,4-dimethyl-1H-imidazole-5-carboxamide] | 7.70 |
| C=CC(=O)N1CC(NC(=O)c2csc(CNc3n[nH]c4cc(Cl)c(C(C)(C)C)cc34)n2)C1 [Example 7, N-(1-acryloylazetidin-3-yl)-2-(((5-(tert-butyl)-6-chloro-1H-indazol-3-yl)amino)methyl)thiazole-4-carboxamide] | 5.37 |
| C=CC(=O)N1CC(NC(=O)c2c(C)nc(CNc3n[nH]c4cc(Cl)c(C(C)(C)C)cc34)n2C)C1 [Example 3, N-(1-acryloylazetidin-3-yl)-2-(((5-(tert-butyl)-6-chloro-1H-indazol-3-yl)amino)methyl)-1,4-dimethyl-1H-imidazole-5-carboxamide] | 8.05 |
| C=CC(=O)N1CCN(C(=O)c2c(C)nc(CNc3n[nH]c4cc(Cl)c(C(C)(C)C)cc34)n2C)CC1 [Example 50, 1-(4-(2-(((5-(Tert-butyl)-6-chloro-1H-indazol-3-yl)amino)methyl)-1,4-dimethyl-1H-imidazole-5-carbonyl)piperazin-1-yl)prop-2-en-1-one] | 5.37 |
| C=CC(=O)N1CC(NC(=O)c2c(C(F)(F)F)nc(CNc3n[nH]c4cc(Cl)c(C(C)(C)C)cc34)n2C(C)C)C1 [Example 32, N-(1-acryloylazetidin-3-yl)-2-(((5-(tert-butyl)-6-chloro-1H-indazol-3-yl)amino)methyl)-1-isopropyl-4-(trifluoromethyl)-1H-imidazole-5-carboxamide] | 7.30 |
| C=CC(=O)N1C[C@@H](O)[C@@H](NC(=O)c2c(C)nc(CNc3n[nH]c4cc(Cl)c(C(C)(C)C)cc34)n2C)C1 [Example 56, N-((3S,4R)-1-acryloyl-4-hydroxypyrrolidin-3-yl)-2-(((5-(tert-butyl)-6-chloro-1H-indazol-3-yl)amino)methyl)-1,4-dimethyl-1H-imidazole-5-carboxamide] | 6.70 |
| C=CC(=O)N1CC(NC(=O)c2c(CC)nc(CNc3n[nH]c4cc(Cl)c(C(C)(C)C)cc34)n2C)C1 [Example 31, N-(1-acryloylazetidin-3-yl)-2-(((5-(tert-butyl)-6-chloro-1H-indazol-3-yl)amino)methyl)-4-ethyl-1-methyl-1H-imidazole-5-carboxamide] | 6.19 |
| C=CC(=O)N1CC(NC(=O)c2cc(CNc3n[nH]c4cc(Cl)c(C(C)(C)C)cc34)nn2C)C1 [Example 9, N-(1-acryloylazetidin-3-yl)-3-(((5-(tert-butyl)-6-chloro-1H-indazol-3-yl)amino)methyl)-1-methyl-1H-pyrazole-5-carboxamide] | 5.50 |

Further compounds by rising pIC50, results first:

| pIC50 | Compound |
| --- | --- |
| 5.18 | C=CC(=O)N1C[C@@H](CC)[C@@H](NC(=O)c2c(C)nc(CNc3n[nH]c4cc(Cl)c(C(C)(C)C)cc34)n2C)C1 [Example 69, N-((3R,4R)-1-acryloyl-4-ethylpyrrolidin-3-yl)-2-(((5-(tert-butyl)-6-chloro-1H-indazol-3-yl)amino)methyl)-1,4-dimethyl-1H-imidazole-5-carboxamide] |
| 6.90 | C=CC(=O)N1CCC(NC(=O)c2c(C)nc(CNc3n[nH]c4cc(Cl)c(C(C)(C)C)cc34)n2C)C1 (centres unmarked) [Example 48, N-(1-acryloylpyrrolidin-3-yl)-2-(((5-(tert-butyl)-6-chloro-1H-indazol-3-yl)amino)methyl)-1,4-dimethyl-1H-imidazole-5-carboxamide] |
| 6.93 | C=CC(=O)N1CC(NC(=O)c2c(Cl)nc(CNc3n[nH]c4cc(Cl)c(C(C)(C)C)cc34)n2-c2ccccn2)C1 [Example 94, N-(1-acryloylazetidin-3-yl)-2-(((5-(tert-butyl)-6-chloro-1H-indazol-3-yl)amino)methyl)-4-chloro-1-(pyridin-2-yl)-1H-imidazole-5-carboxamide] |
| 7.62 | C=CC(=O)N1CC(NC(=O)c2c(C)nc(CNc3n[nH]c4cc(Cl)c(C(C)(C)C)cc34)n2CCOC)C1 [Example 14, N-(1-acryloylazetidin-3-yl)-2-(((5-(tert-butyl)-6-chloro-1H-indazol-3-yl)amino)methyl)-1-(2-methoxyethyl)-4-methyl-1H-imidazole-5-carboxamide] |
| 7.77 | C=CC(=O)N1CC(NC(=O)c2c(C)nc(CNc3n[nH]c4cc(Cl)c(C(C)(C)C)cc34)n2C2CCCC2)C1 [Example 17, N-(1-acryloylazetidin-3-yl)-2-(((5-(tert-butyl)-6-chloro-1H-indazol-3-yl)amino)methyl)-1-cyclopentyl-4-methyl-JH-imidazole-5-carboxamide] |
| 7.80 | C=CC(=O)N1CC(NC(=O)c2c(C)nc(CNc3n[nH]c4cc(Cl)c(C(C)(C)C)cc34)n2CC)C1 [Example 12, N-(1-acryloylazetidin-3-yl)-2-(((5-(tert-butyl)-6-chloro-1H-indazol-3-yl)amino)methyl)-1-ethyl-4-methyl-1H-imidazole-5-carboxamide] |
| 8.15 | C=CC(=O)N1CC(NC(=O)c2c(Cl)nc(CNc3n[nH]c4cc(Cl)c(C(C)(C)C)cc34)n2C2CCOCC2)C1 [Example 101, N-(1-acryloylazetidin-3-yl)-2-(((5-(tert-butyl)-6-chloro-1H-indazol-3-yl)amino)methyl)-4-chloro-1-(tetrahydro-2H-pyran-4-yl)-1H-imidazole-5-carboxamide] |
| 8.15 | C=CC(=O)N1CC(NC(=O)c2c(Cl)nc(CNc3n[nH]c4cc(Cl)c(C(C)(C)C)cc34)n2CC(C)C)C1 [Example 89, N-(1-acryloylazetidin-3-yl)-2-(((5-(tert-butyl)-6-chloro-1H-indazol-3-yl)amino)methyl)-4-chloro-1-isobutyl-1H-imidazole-5-carboxamide] |
| 8.22 | C=CC(=O)N1CC(NC(=O)c2c(Cl)nc(CNc3n[nH]c4cc(Cl)c(C(C)(C)C)cc34)n2CCOC)C1 [Example 90, N-(1-acryloylazetidin-3-yl)-2-(((5-(tert-butyl)-6-chloro-1H-indazol-3-yl)amino)methyl)-4-chloro-1-(2-methoxyethyl)-1H-imidazole-5-carboxamide] |
| 8.30 | C=CC(=O)N1CC(NC(=O)c2c(Cl)nc(CNc3n[nH]c4cc(Cl)c(C(C)(C)C)cc34)n2[C@@H]2CCN(C3COC3)C2)C1 [Example 121, (R)-N-(1-acryloylazetidin-3-yl)-2-(((5-(tert-butyl)-6-chloro-1H-indazol-3-yl)amino)methyl)-4-chloro-1-(1-(oxetan-3-yl)pyrrolidin-3-yl)-1H-imidazole-5-carboxamide] |
